Experimental data from patent publication US6930088B2, “Conformationally constrained backbone cyclized somatostatin analogs” (Peptor Ltd., priority 1998, dated 2005).
Entries after “also recorded” stand apart in the source; their conditions may differ.

Legend:
[1] = target: T1, SSTR-5 (Homo sapiens, UniProt P35346); assay: Inhibition of 125I-Tyr11-SRIF binding to membrane preparations expressing SSTR-5; conditions: read-out: Percent inhibition of SRIF-14 binding
T1 construct: expressed in transfected cells
T1 sequence (P35346 whole entry): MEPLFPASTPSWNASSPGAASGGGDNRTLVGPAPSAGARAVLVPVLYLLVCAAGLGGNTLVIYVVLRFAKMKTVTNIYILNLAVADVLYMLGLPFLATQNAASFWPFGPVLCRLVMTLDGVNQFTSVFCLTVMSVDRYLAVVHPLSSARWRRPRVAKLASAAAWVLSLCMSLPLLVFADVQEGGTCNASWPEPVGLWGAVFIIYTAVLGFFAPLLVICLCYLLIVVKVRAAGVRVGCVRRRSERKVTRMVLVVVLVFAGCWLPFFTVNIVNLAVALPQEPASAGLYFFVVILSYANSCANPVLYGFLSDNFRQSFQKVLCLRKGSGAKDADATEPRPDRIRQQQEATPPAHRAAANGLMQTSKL
Method: The receptor preparations used for these tests were either from the cloned human receptors selectively and stably expressed in Chinese Hamster Ovary (CHO) cells or from cell lines naturally expressing the SSTRs. […] The binding reactions were filtered, the filters were washed and the bound radioactivity was counted in gamma counter. Non specific binding was defined as the radioactivity remaining bound in the presence of 1 μM unlabeled SRIF-14.
In order to validate positive signals of the binding tests, and to eliminate non-specific signals, samples of irrelevant peptides, such as GnRH, that were synthesized and handled using the same procedures, were tested in the same assays as negative control samples. These samples had no binding activity in any of the assays. Results are shown below in Tables 5 and 6 and FIG. 1.

[2] = tested on: Opiate receptors; assay: Guinea-Pig Ileum met-Enkephalin-evoked twitch contraction; conditions: preliminary results
[3] = tested on: Opiate receptors; assay: NovaScreen nonspecific binding, Opiate receptors; conditions: tested at 100 nM; FIG. 2
Excerpt: (§1) NovaScreen (Hanover, Md.) performed an assessment for nonspecific binding to various G-protein coupled receptor families. Binding studies to Neurokinin, Opiate and Muscarinic receptors were based on a comparison between the native hormone Somatostatin, Ocreotide and PTR 3173.

[4] = tested on: human peripheral blood lymphocytes (PBL); assay: Human PBL proliferation assay (mitogenicity); type: cell-based; conditions: PBL proliferation assays
Excerpt: PTR 3173 was furthermore found to be not mitogenic for human lymphocytes in human peripheral blood lymphocytes (PBL) proliferation assays.

[5] = Pharmacokinetics following IV & SC administration; conditions: for dose excreted: urine
[6] = tested on: human Carcinoid BON-1 cells; assay: Inhibition of cAMP in human Carcinoid BON-1 cells; type: cell-based; conditions: following Forskolin stimulation
Excerpt: The activation of SST-R5 leads to the reduction of Adenylate Cyclase activity. Somatostatin receptors including type-5 receptors are expressed in the human Carcinoid derived cell line BON-1. This human cell culture served as an in-vitro discovery assay for novel Carcinoid therapeutics. Interaction of somatostatin analogs with Somatostatin receptors expressed in this system subsequently affects cellular functionality of BON-1.

[7] = tested on: CHO cells expressing human cloned SST-R5; assay: In-vitro cell-growth inhibition; type: cell-based
Method: Pharmacological evaluation of growth inhibition was performed utilizing CHO cells expressing human cloned SST-R5.

[8] = tested on: other G-protein coupled receptors; assay: Binding to non-somatostatin G-protein coupled receptors; conditions: screening vs. Octreotide and SRIF
Excerpt: This characteristic is of great advantageous because binding to non-somatostatin receptors could cause potential adverse effects in the body.
as §1

[9] = tested on: growth hormone (GH) release; assay: In-vivo inhibition of growth hormone release; design: species or system Wistar male rats
Method: Inhibition of growth hormone (GH) release as a result of peptide administration was measured in Wistar male rats.
Adult male Wistar rats weighing 200-250 g, were maintained on a constant light-dark cycle (light from 8:00 to 20:00 h), temperature (21±3° C.), and relative humidity (55±10%). Laboratory chow and tap water were available ad libitum. On the day of the experiment, rats were anesthetized with Nembutal (IP, 60 mg/kg). Ten minutes after anesthesia, drugs were administered S.C. at 0.01-100 microgram/kg dose. Stimulation of GH was performed by I.V. administration of 0.5 g/kg of L-Arginine through femoral vein. Sampling was carried out following 5 minutes of stimulation, at 15 or 30 minutes after peptide administration. Blood samples were collected form abdominal vena-cava into tubes containing heparin (15 units per ml of blood) and centrifuged immediately. Plasma was separated and kept frozen at −20° C. until assayed. Rat growth hormone (rGH) [^125I] levels were determined by means of a radioimmunoassay kit (Amersham). The standard in this kit has been calibrated against a reference standard preparation (NIH-RP2) obtained from the National Institute of Diabetes and Digestive and Kidney Diseases. All samples were measured in duplicate.

## C[C@@H](O)[C@@H]1NC(=O)[C@H](CCCCN)NC(=O)[C@@H](Cc2c[nH]c3ccccc23)NC(=O)[C@H](Cc2c[nH]c3ccccc23)NC(=O)[C@H](Cc2ccccc2)NC(=O)CCCNC(=O)CCCN(CC(N)=O)C(=O)[C@H](Cc2ccccc2)NC1=O [PTR 3173, GABA*-Phe-Trp-(D)Trp-Lys-Thr-Phe-Gly(C3)-X]
[1]
  inhibition at 10 pM: 20%
  inhibition at 0.0001 µM: 48%
  inhibition at 0.001 µM: 63%
  inhibition at 0.01 µM: 82%
  inhibition at 0.1 µM: 95%
  inhibition at 1 µM: 95%
[2]
  effect on met-Enkephalin-evoked twitch contraction: did not affect met-Enkephalin-evoked twitch contraction
[3]
  binding to Opiate receptors: did not bind
[4]
  mitogenicity for human lymphocytes: not mitogenic
[5]; SC, Conscious Wistar rats
  Clearance: 13.3 mL/min/kg
[5]; Wistar, rat, in vivo, iv
  Clearance: 13 mL/min/kg
  Vd: 0.653 L/kg
[5]; Wistar, rat, in vivo, iv, T½β (min) circulating half life, Conscious Wistar rats
  half-life: 0.517 h
[5]; Wistar, rat, in vivo, sc
  bioavailability: 99.6%
[5]; Wistar, rat, in vivo, sc, T½β (min) circulating half life, Conscious Wistar rats
  half-life: 2.83 h
[5]; Wistar, rat, in vivo, sc, circulatory half-life, subcutaneous administration to rats
  half-life: ~3 h
[5]; Wistar, rat, iv
  dose excreted: 10.3%
[5]; Wistar, rat, sc
  dose excreted: 15.9%
[5]; subcutaneous administration, animals
  pharmacokinetic profile: flip flop (a slow release kinetic) pharmacokinetcs
[6]
  inhibition of cAMP production: equipotent to clinically used drug Octreotide
[7]
  growth inhibition: significant growth inhibition; also recorded: considerably higher potency of growth inhibition compared to the native hormone and the drug Octreotide
[8]
  binding to other G-protein coupled receptors: binds significantly less other G-protein coupled receptors than Octreotide
[9]; 100 micrograms per kilogram, L-arginine stimulation, Nembutal anesthesia, FIG. 3
  effect on growth hormone release: equipotent inhibitors of growth hormone release in comparison to Octreotide
[9]; Table 4, physiological selectivity
  GH ID50: 0.1 µg/kg
[9]; in words, no dose stated
  effect on growth hormone (general statement): significant inhibition with prolonged duration of action on the Growth Hormone-IGF-1 axis of a similar magnitude as the drug Octreotide; also recorded: potent inhibitor of growth hormone
